In US6586425B2, “Cytoskeletal active agents for glaucoma therapy” (Wisconsin Alumni Research Foundation, priority 1996, dated 2003):
Several values for one entry are separate records, joined by “and”; a condition that tells them apart may be missing. Equal entries are not always repeated. Where two headings read alike, the source gives them in different places.

Assays:
[1] = test system: living monkey eye; format: in vivo, cynomolgus monkeys (Macaca fascicularis); settings: for (LAT-B/BL)/(Veh/BL) / Facility LAT-B/Vehicle / Facility, LAT-B eye: 2 hr wait
[2] = test system: living monkey eyes; experiment: Aqueous humor protein concentration (Lowry method); format: in vivo, cynomolgus monkeys (Macaca fascicularis); settings: 4 μg LAT-B topical, insignificant
From the text: Approximately 5.5 hr after LAT-A and vehicle (25% DMSO) administration, or approximately 6.5 hr after LAT-B and vehicle (25% DMSO) administration, when AHF measurements had been completed, a sample of AH was obtained under a Zeiss surgical microscope, using a 30-gauge needle connected via polyethylene tubing to a tuberculin syringe. The needle was threaded through the corneal stroma for 6 mm, then directed into the AC so that the wound was self-sealing. AH entered the tubing by very gentle suction with the tuberculin syringe; only occasionally was brief mild pressure on the cornea with a needle holder required to promote the initial flow of AH into the tubing via the very thin needle. Approximately 60-80 μl of AH was removed, leaving a shallow but not completely flattened AC. In separate protocols with different monkeys, AH was similarly obtained 2 hr after 42 μg LAT-A or 1 hr after 4 μg LAT-B to one eye and vehicle to the opposite eye. The AH samples were stored at −20° C. for up to 24 hr. The protein concentration in each sample was assayed by the Lowry method, as known in the art (See e.g., Lowry et al., J. Biol. Chem., 193:265-275[1951]; and Peterson et al., Anal. Biochem., 100:201-220[1979]), in duplicate, and the result averaged. Duplicate sets of protein standards containing 0, 1, 3, 5, 10, 20, 40, or 60 μg bovine serum albumin (BSA) were assayed by the same method and results averaged and graphed to give a linear equation that was used to estimate the protein content in the AH samples. The optical density of each sample was measured at 660 nm using a Spectronic 20 Spectrophotometer (Bausch and Lomb).

[3] = test system: cornea; experiment: Corneal thickness by ultrasonic pachymetry; format: in vivo, cynomolgus monkeys (Macaca fascicularis)
Method: Corneal thickness was measured using a DGH-1000 ultrasonic pachymeter (DGH Technology). All eyes were examined by biomicroscopy prior to baseline measurements. Monkeys were placed supine in head holders. The central cornea was measured once and the peripheral cornea was measured four times midway between the center and the limbus on the vertical and horizontal axes. For each point in each eye, two baseline thickness measurements were averaged, and 4.0 μg LAT-B or 25% DMSO was administered to opposite eyes in the LAT-B protocol, or 25% DMSO or Bárány's administered to opposite eyes in the DMSO control protocol. The eyelids were held open manually during and for 5 min. after drug or vehicle administration. Corneal thickness was measured every 30-min. for 6 hr and again at 24 hr.

[4] = test system: corneal endothelium; settings: 42 μg LAT-A topical, n=4
[5] = test system: living monkey eye; settings: living monkeys; cited from earlier work
[6] = LAT-B 0.8 μg topical, 0-30 min, n=5
[7] = LAT-B 0.8 μg topical, 30-60 min, n=5
[8] = LAT-B 0.8 μg topical, 60-90 min, n=5
[9] = LAT-B 4.0 μg topical, 0-30 min, n=5
[10] = LAT-B 4.0 μg topical, 30-60 min, n=5
[11] = LAT-B 4.0 μg topical, 60-90 min, n=5

## C/C1=C/C(=O)O[C@@H]2C[C@@H](CC[C@H](C)/C=C\CC1)O[C@@](O)([C@@H]1CSC(=O)N1)C2 [LAT-B]
[1]; 2 hr after LAT-B 4.0 μg topical, n=5
  initial post-drug facility increase over final baseline value: 173±73%
[1]; LAT-B 0.8 μg Top, n=5
  PRxf (final post-drug) facility, LAT-B eye: 1.54 ± 0.33 μl min^−1 mmHg^−1
  PRxf facility, LAT-B/Veh: 2.82 ± 1.22
  PRxf/BLf, LAT-B eye: 3.78 ± 0.70
  PRxf/BLf, LAT-B/Veh: 2.12 ± 0.64
  PRxf/PRxi, LAT-B eye: 3.41 ± 0.73
  PRxf/PRxi, LAT-B/Veh: 1.50 ± 0.28
  PRxi (first post-drug) facility, LAT-B eye: 0.47 ± 0.08 μl min^−1 mmHg^−1
  PRxi facility, LAT-B/Veh: 1.65 ± 0.38
  PRxi/BLf, LAT-B eye: 1.16 ± 0.11
  PRxi/BLf, LAT-B/Veh: 1.36 ± 0.16
[1]; [6]
  (LAT-B/BL)/(Veh/BL): 1.84
  Facility LAT-B/Vehicle: 2.30
  Facility, LAT-B eye: 0.80 μl min^−1 mmHg^−1
[1]; [7]
  (LAT-B/BL)/(Veh/BL): 2.59
  Facility LAT-B/Vehicle: 3.37
  Facility, LAT-B eye: 1.35 μl min^−1 mmHg^−1
[1]; [8]
  (LAT-B/BL)/(Veh/BL): 2.37
  Facility LAT-B/Vehicle: 3.14
  Facility, LAT-B eye: 1.50 μl min^−1 mmHg^−1
[1]; LAT-B 0.8 μg topical, n=5, p=NS
  facility increase, averaged over 90 min: 123±67%
[1]; LAT-B 4.0 μg Top, n=5
  PRxf (final post-drug) facility, LAT-B eye: 2.03 ± 0.31 μl min^−1 mmHg^−1
  PRxf facility, LAT-B/Veh: 3.92 ± 0.58^∥
  PRxf/BLf, LAT-B eye: 6.19 ± 0.48
  PRxf/BLf, LAT-B/Veh: 3.69 ± 0.55^∥
  PRxf/PRxi, LAT-B eye: 3.16 ± 1.08
  PRxf/PRxi, LAT-B/Veh: 1.80 ± 0.53
  PRxi (first post-drug) facility, LAT-B eye: 0.98 ± 0.27 μl min^−1 mmHg^−1
  PRxi facility, LAT-B/Veh: 3.19 ± 1.16
  PRxi/BLf, LAT-B eye: 3.03 ± 0.94
  PRxi/BLf, LAT-B/Veh: 2.73 ± 0.73
[1]; [9]
  (LAT-B/BL)/(Veh/BL): 3.68
  Facility LAT-B/Vehicle: 4.49
  Facility, LAT-B eye: 1.64 μl min^−1 mmHg^−1
[1]; [10]
  (LAT-B/BL)/(Veh/BL): 4.03
  Facility LAT-B/Vehicle: 4.74
  Facility, LAT-B eye: 2.19 μl min^−1 mmHg^−1
[1]; [11]
  (LAT-B/BL)/(Veh/BL): 3.68
  Facility LAT-B/Vehicle: 4.22
  Facility, LAT-B eye: 2.11 μl min^−1 mmHg^−1
[1]; LAT-B 4.0 μg topical, n=5
  facility increase, averaged over 90 min: 272±45%
[2]; 1 hr, n=4
  [Protein]AC increase vs contralateral control eyes: 80±51%
[2]; 6.5 hr, n=6
  [Protein]AC increase vs contralateral control eyes: 11±24%
[3]; 4.0 μg LAT-B topical, 3.5 hr, n=8
  central corneal thickness increase vs contralateral control eyes (maximum): ~47 μm and 47±17 μm
[3]; 4.0 μg LAT-B topical, 24 hr
  central and peripheral corneal thickness: returned to baseline
[3]; LAT-B, hour 3.5 (maximal change)
  central cornea thicker compared to normal monkey cornea: ~10%
[4]; 3 days
  Cell count Exp, drug eye: 2188 ± 430 cell per square millimeter
  Cell count Exp, drug/Vehicle: 0.86 ± 0.11
  Cell count Exp, drug−Vehicle: −281 ± 248 cell per square millimeter
  Cell count Exp/BL, drug eye: 0.83 ± 0.14
  Cell count Exp/BL, drug/Vehicle: 0.80 ± 0.11
  Cell count Exp/BL, drug−Vehicle: −0.18 ± 0.10
[4]; 7 days
  Cell count Exp, drug eye: 2494 ± 166 cell per square millimeter
  Cell count Exp, drug/Vehicle: 1.04 ± 0.03
  Cell count Exp, drug−Vehicle: 94 ± 68 cell per square millimeter
  Cell count Exp/BL, drug eye: 0.94 ± 0.04
  Cell count Exp/BL, drug/Vehicle: 0.96 ± 0.02
  Cell count Exp/BL, drug−Vehicle: −0.04 ± 0.02
[4]; 14 days
  Cell count Exp, drug eye: 2581 ± 143 cell per square millimeter
  Cell count Exp, drug/Vehicle: 1.03 ± 0.05
  Cell count Exp, drug−Vehicle: 75 ± 108 cell per square millimeter
  Cell count Exp/BL, drug eye: 0.98 ± 0.02
  Cell count Exp/BL, drug/Vehicle: 0.95 ± 0.03
  Cell count Exp/BL, drug−Vehicle: −0.05 ± 0.03
[5]
  potency relative to LAT-A (outflow facility): 10 times
